Several values for one entry are separate records, joined by “and”; a condition that tells them apart may be missing. Identical values can stand only once. Blank lines part the entries; values can stand above or below the compound they belong to.
Columns and labels:
Assay in all cases: In-cell proteome-wide competitive ABPP, HEK293: other DUBs and proteins
[1] = biological target: T1, DUBs and other proteins in HEK293 cells (Homo sapiens, UniProt P40818); settings: for Log2 reporter intensity values: USP8: competition with ABP 2, DMSO substract (FC), replicates A-B; for Log2 reporter intensity values: USP8, DMSO subtracted
T1 sequence (P40818 1-1118): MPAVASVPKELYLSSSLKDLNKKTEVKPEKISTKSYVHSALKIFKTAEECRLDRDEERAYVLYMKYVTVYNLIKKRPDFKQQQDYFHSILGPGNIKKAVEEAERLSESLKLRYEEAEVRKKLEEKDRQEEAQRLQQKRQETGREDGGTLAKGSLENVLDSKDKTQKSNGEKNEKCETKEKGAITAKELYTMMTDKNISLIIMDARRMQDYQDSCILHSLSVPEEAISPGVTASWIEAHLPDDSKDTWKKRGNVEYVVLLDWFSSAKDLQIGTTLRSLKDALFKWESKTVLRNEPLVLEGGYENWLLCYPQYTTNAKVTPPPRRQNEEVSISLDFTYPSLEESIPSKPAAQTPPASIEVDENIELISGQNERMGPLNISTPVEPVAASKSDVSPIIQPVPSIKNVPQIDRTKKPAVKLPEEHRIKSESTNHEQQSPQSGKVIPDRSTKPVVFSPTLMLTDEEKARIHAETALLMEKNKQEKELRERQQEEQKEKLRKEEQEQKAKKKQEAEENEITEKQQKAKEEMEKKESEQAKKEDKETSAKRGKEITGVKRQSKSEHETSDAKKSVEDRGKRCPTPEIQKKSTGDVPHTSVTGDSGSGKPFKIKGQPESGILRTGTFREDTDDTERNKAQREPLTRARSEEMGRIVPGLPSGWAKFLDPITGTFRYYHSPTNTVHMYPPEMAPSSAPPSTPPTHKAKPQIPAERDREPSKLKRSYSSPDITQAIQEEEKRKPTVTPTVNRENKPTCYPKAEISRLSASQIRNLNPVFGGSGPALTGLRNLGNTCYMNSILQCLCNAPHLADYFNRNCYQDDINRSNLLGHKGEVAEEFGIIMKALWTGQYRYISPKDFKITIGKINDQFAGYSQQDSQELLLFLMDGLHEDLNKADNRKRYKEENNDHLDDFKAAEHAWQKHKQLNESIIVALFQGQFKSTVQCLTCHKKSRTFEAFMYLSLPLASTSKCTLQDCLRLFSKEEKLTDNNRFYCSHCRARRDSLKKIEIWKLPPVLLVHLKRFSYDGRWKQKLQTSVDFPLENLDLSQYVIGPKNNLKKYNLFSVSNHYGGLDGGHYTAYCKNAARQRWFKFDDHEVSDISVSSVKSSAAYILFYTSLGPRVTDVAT

[2] = biological target: T2, DUBs and other proteins in HEK293 cells (Homo sapiens, UniProt P45974); settings: replicates A-C; for Log2 reporter intensity values: USP5: DMSO substract (FC); for Log2 reporter intensity values: USP5, DMSO subtracted
T2 sequence (P45974 1-858): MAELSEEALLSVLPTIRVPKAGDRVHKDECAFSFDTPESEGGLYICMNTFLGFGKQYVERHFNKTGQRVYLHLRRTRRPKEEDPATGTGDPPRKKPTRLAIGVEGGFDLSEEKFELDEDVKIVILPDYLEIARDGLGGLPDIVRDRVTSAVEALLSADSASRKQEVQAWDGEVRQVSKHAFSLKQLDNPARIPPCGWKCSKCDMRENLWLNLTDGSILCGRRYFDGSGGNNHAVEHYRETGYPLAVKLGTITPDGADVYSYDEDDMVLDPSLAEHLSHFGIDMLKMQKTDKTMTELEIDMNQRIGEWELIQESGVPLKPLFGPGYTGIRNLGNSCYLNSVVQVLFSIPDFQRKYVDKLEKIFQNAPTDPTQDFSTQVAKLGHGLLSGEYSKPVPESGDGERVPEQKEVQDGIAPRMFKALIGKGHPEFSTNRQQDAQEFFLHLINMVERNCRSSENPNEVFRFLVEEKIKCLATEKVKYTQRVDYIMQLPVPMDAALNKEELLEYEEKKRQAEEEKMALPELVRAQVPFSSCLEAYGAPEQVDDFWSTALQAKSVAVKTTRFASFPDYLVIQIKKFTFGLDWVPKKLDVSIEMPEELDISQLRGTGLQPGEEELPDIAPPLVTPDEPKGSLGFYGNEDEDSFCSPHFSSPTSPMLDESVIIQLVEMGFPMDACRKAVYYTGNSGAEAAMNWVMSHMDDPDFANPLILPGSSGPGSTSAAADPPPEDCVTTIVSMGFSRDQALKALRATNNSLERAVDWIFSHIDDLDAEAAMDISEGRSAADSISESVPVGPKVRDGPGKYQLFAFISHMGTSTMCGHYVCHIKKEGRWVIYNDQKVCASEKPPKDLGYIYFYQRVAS

[3] = biological target: DUBs and other proteins in HEK293 cells (Homo sapiens, UniProt O15372); settings: for Log2 reporter intensity values, EIF3H: TMT replicates; for Log2 reporter intensity values: EIF3H: DMSO substract (FC); for Log2 reporter intensity values: EIF3H / Log2 reporter intensity values: replicates A-C; for Log2 t-test Difference / Log2 reporter intensity values: EIF3H
Chain of DUBs and other proteins in HEK293 cells (Homo sapiens, UniProt O15372) (O15372 whole entry): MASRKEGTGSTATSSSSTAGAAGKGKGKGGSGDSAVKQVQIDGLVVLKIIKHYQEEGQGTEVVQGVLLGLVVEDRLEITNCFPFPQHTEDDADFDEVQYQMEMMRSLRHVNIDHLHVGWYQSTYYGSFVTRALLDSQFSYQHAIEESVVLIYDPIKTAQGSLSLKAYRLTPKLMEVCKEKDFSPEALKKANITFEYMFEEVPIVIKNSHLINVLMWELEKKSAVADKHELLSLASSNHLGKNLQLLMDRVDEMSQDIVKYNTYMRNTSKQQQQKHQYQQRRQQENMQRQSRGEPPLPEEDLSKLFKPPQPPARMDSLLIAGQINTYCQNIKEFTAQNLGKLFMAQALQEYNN

[4] = 1 at 1 μM, competition with ABP 2
[5] = 1 at 4 μM, competition with ABP 2
[6] = 3 at 1 μM, competition with ABP 2
[7] = 3 at 4 μM, competition with ABP 2

Log2 reporter intensity values: USP8 ([1]; 1 at 1 μM): 0.9851 and 0.9804
Log2 reporter intensity values: USP8 ([1]; 1 at 4 μM): 1.1 and 1.102
Log2 reporter intensity values ([1]; 1_1 μM, replicates A-B (C NaN)): -0.01738 and -0.02201
Log2 reporter intensity values ([1]; 1_4 μM, replicates A-B (C NaN)): 0.09749 and 0.0991
Log2 reporter intensity values ([1]; 1 at 1 μM, replicates A-C): -0.0217 and -0.0285
Log2 reporter intensity values ([1]; 1 at 4 μM, replicates A-C): 0.1374 and 0.1395
Log2 reporter intensity values: USP5 [2, 4]: 0.9731 and 0.9825 and 0.9558
Log2 reporter intensity values: USP5 [2, 5]: 0.9723 and 0.9393 and 0.9714
Log2 reporter intensity values ([2]; 1_1 μM): -0.02722 and -0.01785 and -0.04454
Log2 reporter intensity values ([2]; 1_4 μM): -0.02801 and -0.06107 and -0.02897
Log2 reporter intensity values ([2]; 1 at 1 μM): -0.03934 and -0.0255 and -0.06525
Log2 reporter intensity values ([2]; 1 at 4 μM): -0.04051 and -0.09041 and -0.04193
Log2 reporter intensity values, EIF3H ([3]; 1 μM 1 (60 min) + 20 nM ABP 2 (10 min), All values): -0.09256 and -0.05547 and -0.03085
Log2 reporter intensity values, EIF3H ([3]; 1 μM 1 (60 min) + 20 nM ABP 2 (10 min), DMSO subtracted): -0.1222 and -0.08506 and -0.06044
Log2 reporter intensity values, EIF3H ([3]; 4 μM 1 (60 min) + 20 nM ABP 2 (10 min), All values): -0.07138 and -0.1308 and -0.1362
Log2 reporter intensity values, EIF3H ([3]; 4 μM 1 (60 min) + 20 nM ABP 2 (10 min), DMSO subtracted): -0.101 and -0.1603 and -0.1658
Log2 reporter intensity values: EIF3H [3, 4]: 0.9188 and 0.9427 and 0.959
Log2 reporter intensity values: EIF3H [3, 5]: 0.9324 and 0.8948 and 0.8914
Log2 t-test Difference ([3]; 1 - 1 μM): -0.08557
Log2 t-test Difference ([3]; 1 - 4 μM): -0.1387
Log2 reporter intensity values ([3]; 1_1 μM, DMSO subtracted): -0.08133 and -0.0574 and -0.04117
Log2 reporter intensity values ([3]; 1_4 μM, DMSO subtracted): -0.06774 and -0.1053 and -0.1087
Log2 reporter intensity values ([3]; 1 at 1 μM, DMSO subtracted): -0.1222 and -0.08506 and -0.06044
Log2 reporter intensity values ([3]; 1 at 4 μM, DMSO subtracted): -0.101 and -0.1603 and -0.1658
SMILES: N#CN1CCC[C@H]1C(=O)N1CCc2c(-c3c[nH]c4ncccc34)cccc21 [Compound 1]

Log2 reporter intensity values: USP5 ([2]; 20 nM ABP 2 alone): 0.9172 and 0.9432 and 0.9583
Log2 reporter intensity values, EIF3H ([3]; 20 nM ABP 2 (10 min), no competitor, All values): 0.02449 and 0.02357 and 0.02975
Log2 reporter intensity values, EIF3H ([3]; 20 nM ABP 2 (10 min), no competitor, DMSO subtracted): -0.005103 and -0.006015 and 0.0001635
Log2 reporter intensity values: EIF3H ([3]; 20 nM ABP 2 alone): 0.9965 and 0.9958 and 1
Log2 t-test Difference ([3]; ABP 2 - 20 nM): -0.003651
SMILES: C#Cc1cnc2[nH]cc(-c3cccc4c3CCN4C(=O)[C@@H]3CCCN3C#N)c2c1 [Compound 2]
Log2 reporter intensity values ([2]; 20 nM ABP 2): -0.1247 and -0.08438 and -0.06148 and -0.08313 and -0.05714
Log2 reporter intensity values ([3]; 20 nM ABP 2, DMSO subtracted): -0.005103 and -0.006015 and 0.0001635 and -0.003675 and -0.004305 and -3.08E-05

Log2 reporter intensity values: USP8 ([1]; 3 at 1 μM): 0.95 and 1.134
Log2 reporter intensity values: USP8 ([1]; 3 at 4 μM): 0.8355 and 0.9159
Log2 reporter intensity values ([1]; 3_1 μM, replicates A-B (C NaN)): -0.05241 and 0.1313
Log2 reporter intensity values ([1]; 3_4 μM, replicates A-B (C NaN)): -0.167 and -0.08651
Log2 reporter intensity values ([1]; 3 at 1 μM, replicates A-C): -0.07394 and 0.1811
Log2 reporter intensity values ([1]; 3 at 4 μM, replicates A-C): -0.2593 and -0.1267
Log2 reporter intensity values: USP5 [2, 6]: 0.9394 and 0.9901 and 0.9848
Log2 reporter intensity values: USP5 [2, 7]: 1.005 and 1.031 and 1.063
Log2 reporter intensity values ([2]; 3_1 μM): -0.06093 and -0.01022 and -0.01553
Log2 reporter intensity values ([2]; 3_4 μM): 0.004396 and 0.03114 and 0.06231
Log2 reporter intensity values ([2]; 3 at 1 μM): -0.0902 and -0.01435 and -0.02211
Log2 reporter intensity values ([2]; 3 at 4 μM): 0.006795 and 0.04469 and 0.08765
Log2 reporter intensity values, EIF3H ([3]; 1 μM 3 (60 min) + 20 nM ABP 2 (10 min), All values): -0.08032 and 0.01397 and -0.006379
Log2 reporter intensity values, EIF3H ([3]; 1 μM 3 (60 min) + 20 nM ABP 2 (10 min), DMSO subtracted): -0.1099 and -0.01562 and -0.03597
Log2 reporter intensity values, EIF3H ([3]; 4 μM 3 (60 min) + 20 nM ABP 2 (10 min), All values): 0.0444 and 0.04115 and 0.06318
Log2 reporter intensity values, EIF3H ([3]; 4 μM 3 (60 min) + 20 nM ABP 2 (10 min), DMSO subtracted): 0.01481 and 0.01156 and 0.03359
Log2 reporter intensity values: EIF3H [3, 6]: 0.9266 and 0.9892 and 0.9754
Log2 reporter intensity values: EIF3H [3, 7]: 1.01 and 1.008 and 1.024
Log2 t-test Difference ([3]; 3 - 1 μM): -0.05018
Log2 t-test Difference ([3]; 3 - 4 μM): 0.02364
Log2 reporter intensity values ([3]; 3_1 μM, DMSO subtracted): -0.0735 and -0.01091 and -0.02477
Log2 reporter intensity values ([3]; 3_4 μM, DMSO subtracted): 0.01017 and 0.007903 and 0.02341
Log2 reporter intensity values ([3]; 3 at 1 μM, DMSO subtracted): -0.1099 and -0.01562 and -0.03597
Log2 reporter intensity values ([3]; 3 at 4 μM, DMSO subtracted): 0.01481 and 0.01156 and 0.03359
SMILES: N#CN1CCC[C@@H]1C(=O)N1CCc2c(-c3c[nH]c4ncccc34)cccc21 [Compound 3]
